Data as given in patent US8835495B2, “Pharmaceutical composition comprising cyclobenzaprine and aceclofenac in association” (Incrementha P, D & I Pesquisa, Desenvolvimento e Inovacao …, priority 2006, dated 2014).
Structures can show the parent of a compound that is named as a salt.

Test: Comparative stability study of cyclobenzaprine hydrochloride and aceclofenac together and isolated (opened glass flasks, oven)
Assay type: physicochemical
Conditions: oven at 50° C. and 90% relative moisture, after 30 days

| SMILES | content of active ingredient(s) by chromatographic analysis |
| --- | --- |
| O=C(O)COC(=O)Cc1ccccc1Nc1c(Cl)cccc1Cl [aceclofenac, 2-[2-[2-[(2,6-dichlorophenyl)amino]phenyl]acetyl]oxyacetic acid] | remained unaltered |
| CN(C)CCC=C1c2ccccc2C=Cc2ccccc21 [cyclobenzaprine hydrochloride, 3-(5H-dibenzo[a,d]cyclohepten-5-ylidene)-N,N-dimethyl-1-propanamine] | remained unaltered |
